Key:
Format in all cases: in vivo
[1] = test system: Green Peach Aphid (GPA) (Myzus persicae); assay: Bioassay on green peach aphid (GPA), foliar spray on cabbage seedlings; conditions: 72 h, read-out: % Mortality GPA 200 ppm
Protocol: Bioassays on Green Peach Aphid (“GPA”) (Myzus persicae)
Certain molecules disclosed in this document were tested against GPA using procedures described in the following example. In the reporting of the results, the “GPA Rating Table” was used (See Table Section).
Cabbage seedlings grown in 3-inch pots, with 2-3 small (3-5 cm) true leaves, were used as test substrate. The seedlings were infested with 20-50 GPA (wingless adult and nymph stages) one day prior to chemical application. Four pots with individual seedlings were used for each treatment. Test compounds (2 mg) were dissolved in 2 mL of acetone/methanol (1:1) solvent, forming stock solutions of 1000 ppm test compound. The stock solutions were diluted 5× with 0.025% Tween 20 in H2O to obtain the solution at 200 ppm test compound. A hand-held aspirator-type sprayer was used for spraying a solution to both sides of […] leaves until runoff. Reference plants (solvent check) were sprayed with the diluent only containing 20% by volume of acetone/methanol (1:1) solvent. Treated plants were held in a holding room for three days at approximately 25° C. and ambient relative humidity (RH) prior to grading. Evaluation was conducted by counting the number of live aphids per plant under a microscope. Percent Control was measured by using Abbott's correction formula (W. S. Abbott, “A Method of Computing the Effectiveness of an Insecticide” J. Econ. Entomol. 18 (1925), pp. 265-267) as follows. Corrected%Control=100*(X−Y)/X • where • X=No. of live aphids on solvent check plants and • Y=No. of live aphids on treated plants
The results are indicated in the table entitled “Table 5: Biological Results” (See Table Section).

[2] = test system: Beet Armyworm (BAW) (Spodoptera exigua); assay: Bioassay on beet armyworm (BAW), 128-well diet tray assay; conditions: Spodoptera exigua; Beet armyworm, 50 μg/cm^2; read-out: % Mortality BAW 50 μg/cm^2
How it was run: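 Second-instar Spodoptera exigua larvae, one to five per well, on artificial diet treated with 50 μg/cm^2 compound in 90:10 acetone-water and dried, eight wells per compound. Held at 25 °C, 14:10 light-dark for five to seven days; percent mortality averaged over wells.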

[3] = test system: Corn Earworm (CEW) (Helicoverpa zea); assay: Bioassay on corn earworm (CEW), 128-well diet tray assay; conditions: Helicoverpa zea; Corn earworm, 50 μg/cm^2; read-out: % Mortality CEW 50 μg/cm^2
How it was run: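 Second-instar Helicoverpa zea larvae (one to five per well) placed on artificial diet treated with 50 μg/cm^2 compound in 90:10 acetone-water, dried, eight wells per compound. Held at 25 °C, 14:10 light-dark, five to seven days; percent mortality averaged over wells.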

## FC(F)(F)Oc1ccc(-n2cnc(-c3ccc(/C=N/N=C4\SCCCN4c4ccccc4C4CC4)cc3)n2)cc1 [Compound 186C]
[1]
  pest or weed control at 200 ppm: 0 to 80%
[2]
  pest or weed control at 50 µg/cm2, 50 µg/cm2: 50 to 100%
[3]
  pest or weed control at 50 µg/cm2, 50 µg/cm2: 50 to 100%

## CC(C)c1ccccc1N1C(=O)CCSC1=NN=Cc1ccc(-c2ncn(-c3ccc(OC(F)(F)F)cc3)n2)cc1 (stereo in doubt) [Compound 224C, (Z)-3-(2-isopropylphenyl)-2-((E)-(4-(1-(4-(trifluoromethoxy)phenyl)-1H-1,2,4-triazol-3-yl)benzylidene)hydrazono)-1,3-thiazinan-4-one]
[1]
  pest or weed control at 200 ppm: 0 to 80%
[2]
  pest or weed control at 50 µg/cm2, 50 µg/cm2: 50 to 100%
[3]
  pest or weed control at 50 µg/cm2, 50 µg/cm2: 50 to 100%

## CCc1cccc(C)c1N1/C(=N/N=C/c2ccc(-c3ncn(-c4ccc(OC(F)(F)F)cc4)n3)cc2)SCCC1C (stereo not drawn) [Compound 213C]
[1]
  pest or weed control at 200 ppm: 0 to 80%
[2]
  pest or weed control at 50 µg/cm2, 50 µg/cm2: 50 to 100%
[3]
  pest or weed control at 50 µg/cm2, 50 µg/cm2: 50 to 100%

## Cc1cccc(C)c1-n1c(-c2ccc(C(=O)O)cc2)cs/c1=N\N=C\c1ccc(-c2ncn(-c3ccc(OC(F)(F)F)cc3)n2)cc1 [Compound 77C]
[1]
  pest or weed control at 200 ppm: 0 to 80%
[2]
  pest or weed control at 50 µg/cm2, 50 µg/cm2: 50 to 100%
[3]
  pest or weed control at 50 µg/cm2, 50 µg/cm2: 50 to 100%

## COC(=O)c1ccc(CS/C(=N\c2c(C)cccc2C)N/N=C/c2ccc(-c3ncn(-c4ccc(OC(F)(F)F)cc4)n3)cc2)cc1 [Compound 12C]
[1]
  pest or weed control at 200 ppm: 0 to 80%
[2]
  pest or weed control at 50 µg/cm2, 50 µg/cm2: 50 to 100%
[3]
  pest or weed control at 50 µg/cm2, 50 µg/cm2: 50 to 100%

## FC(F)(F)Oc1ccc(-n2cnc(-c3ccc(/C=N/N=C4\SCCN4c4ccccc4C4CC4)cc3)n2)cc1 [Compound 145C]
[1]
  pest or weed control at 200 ppm: 0 to 80%
[2]
  pest or weed control at 50 µg/cm2, 50 µg/cm2: 50 to 100%
[3]
  pest or weed control at 50 µg/cm2, 50 µg/cm2: 50 to 100%

## Cc1cccc(C)c1/N=C(/N/N=C/c1ccc(-c2ncn(-c3ccc(OC(F)(F)F)cc3)n2)cc1)SCC(=O)NCCCNC(=O)OC(C)(C)C [Compound 58C]
[1]
  pest or weed control at 200 ppm: 0 to 80%
[2]
  pest or weed control at 50 µg/cm2, 50 µg/cm2: 50 to 100%
[3]
  pest or weed control at 50 µg/cm2, 50 µg/cm2: 50 to 100%

## Cc1cccc(Cl)c1N1/C(=N/N=C/c2ccc(-c3ncn(-c4ccc(OC(F)(F)F)cc4)n3)cc2)SCC1C (stereo not drawn) [Compound 158C]
[1]
  pest or weed control at 200 ppm: 0 to 80%
[2]
  pest or weed control at 50 µg/cm2, 50 µg/cm2: 50 to 100%
[3]
  pest or weed control at 50 µg/cm2, 50 µg/cm2: 50 to 100%

## Cc1cc(C)c(N2CCS/C2=N\N=C\c2ccc(-c3ncn(-c4ccc(OC(F)(F)F)cc4)n3)cc2)c(C)c1 [Compound 139C]
[1]
  pest or weed control at 200 ppm: 0 to 80%
[2]
  pest or weed control at 50 µg/cm2, 50 µg/cm2: 50 to 100%
[3]
  pest or weed control at 50 µg/cm2, 50 µg/cm2: 50 to 100%

## COc1cc(C)c(/N=C(/N/N=C/c2ccc(-c3ncn(-c4ccc(OC(F)(F)F)cc4)n3)cc2)SCOC(=O)C(C)(C)C)c(C)c1 [Compound 40C]
[1]
  pest or weed control at 200 ppm: 0 to 80%
[2]
  pest or weed control at 50 µg/cm2, 50 µg/cm2: 50 to 100%
[3]
  pest or weed control at 50 µg/cm2, 50 µg/cm2: 50 to 100%

## O=C1CS/C(=N\N=C\c2ccc(-c3ncn(-c4ccc(OC(F)(F)F)cc4)n3)cc2)N1c1c(F)cccc1Cl [Compound 95C]
[1]
  pest or weed control at 200 ppm: 0 to 80%
[2]
  pest or weed control at 50 µg/cm2, 50 µg/cm2: 50 to 100%
[3]
  pest or weed control at 50 µg/cm2, 50 µg/cm2: 50 to 100%

## Cc1cccc(C)c1/N=C(/N/N=C/c1ccc(-c2ncn(-c3ccc(OC(F)(F)F)cc3)n2)cc1)SCc1ccc(OC(F)(F)F)cc1 [Compound 8C]
[1]
  pest or weed control at 200 ppm: 0 to 80%
[2]
  pest or weed control at 50 µg/cm2, 50 µg/cm2: 50 to 100%
[3]
  pest or weed control at 50 µg/cm2, 50 µg/cm2: 50 to 100%

## COc1cc(C)c(/N=C(/N/N=C/c2ccc(-c3ncn(-c4ccc(OC(F)(F)F)cc4)n3)cc2)SCOC(=O)C2CCCC2)c(C)c1 [Compound 43C]
[1]
  pest or weed control at 200 ppm: 0 to 80%
[2]
  pest or weed control at 50 µg/cm2, 50 µg/cm2: 50 to 100%
[3]
  pest or weed control at 50 µg/cm2, 50 µg/cm2: 50 to 100%

## CCOCC(=O)OCS/C(=N\c1c(C)cc(OC)cc1C)N/N=C/c1ccc(-c2ncn(-c3ccc(OC(F)(F)F)cc3)n2)cc1 [Compound 29C]
[1]
  pest or weed control at 200 ppm: 0 to 80%
[2]
  pest or weed control at 50 µg/cm2, 50 µg/cm2: 50 to 100%
[3]
  pest or weed control at 50 µg/cm2, 50 µg/cm2: 50 to 100%

## COc1ccccc1N1C(=O)CS/C1=N\N=C\c1ccc(-c2ncn(-c3ccc(OC(F)(F)F)cc3)n2)cc1 [Compound 92C]
[1]
  pest or weed control at 200 ppm: 0 to 80%
[2]
  pest or weed control at 50 µg/cm2, 50 µg/cm2: 50 to 100%
[3]
  pest or weed control at 50 µg/cm2, 50 µg/cm2: 50 to 100%

## Cc1cccc(C)c1N1CCCS/C1=N\N=C\c1ccc(-c2ncn(-c3ccc(OC(F)(F)F)cc3)n2)cc1 [Compound 182C]
[1]
  pest or weed control at 200 ppm: 0 to 80%
[2]
  pest or weed control at 50 µg/cm2, 50 µg/cm2: 50 to 100%
[3]
  pest or weed control at 50 µg/cm2, 50 µg/cm2: 50 to 100%

Source: patent US9018388B2, “Pesticidal compositions and processes related thereto” (Dow AgroSciences LLC, priority 2012, dated 2015)
